Like-named read-outs stand apart in the source and are kept apart here.
Columns and labels:
[1] = system: HuTu 80; experiment: Cytotoxicity assay (Cytell Cell Imaging, Cell Viability Bio App); settings: read-out: Cytotoxic effects (IC50) HuTu 80; cancer cell line HuTu 80; tested at 1–100 μM; mean ± SD, three repeats
[2] = system: PANC-1; experiment: as above; settings: read-out: Cytotoxic effects (IC50) PANC-1; cancer cell line PANC-1; tested at 1–100 μM; mean ± SD, three repeats
[3] = system: M-HeLa; experiment: as above; settings: read-out: Cytotoxic effects (IC50) M-HeLa; cancer cell line M-HeLa; tested at 1–100 μM; mean ± SD, three repeats
[4] = in vitro; settings: human
[5] = system: M-HeLa; settings: for IC50: human
[6] = system: HuTu 80; settings: human
[7] = system: PANC-1; settings: human
[8] = system: Chang Liver
[9] = system: M-HeLa cells; experiment: Cell apoptosis analysis by flow cytometry (annexin V-FITC / propidium iodide); type: cell-based, human; settings: 24 h
Method: Cell Culture. M-HeLa cells at 1 × 10^6 cells/well in a final volume of 2 mL were seeded into 6-well plates. After 24 h of incubation, various concentrations of Compounds 2f and 3f were added to wells.
Cell Apoptosis Analysis. The cells were harvested at 2000 rpm for 5 min and, then, washed twice with ice-cold PBS, followed by resuspension in binding buffer. Next, the samples were incubated with 5 μL of annexin V-FITC and 5 μL of propidium iodide for 15 min at room temperature in the dark. Finally, the cells were analyzed by flow cytometry (Guava easy Cyte, MERCK, Kenilworth Union County, NJ, USA). The experiments were repeated three times.

[10] = system: M-HeLa cell lines; experiment: Cell cycle analysis by flow cytometry (propidium iodide); type: cell-based, human; settings: 24 h, control 68.1
Method: Cell cycle analysis by quantification of DNA content is a reliable method to investigate which phase cell cycle has been arrested, wherein propidium iodide dye is used which binds in proportion to the amount of DNA present in the cell. […] The results reveal that 3f caused an increase in % of G1 arrest. Compound 3f was on 81.4% and 83.8% at 50 and 100 µM, respectively, which is more than control cells (68.1%) (Figure 9).
The DNA content and cell-cycle distribution after genistein treatment were estimated by flow cytometry. Cell seeding, drug treatment and ethanol fixation were similar to cell proliferation assay. After washing with PBS, genistein and daidzein-treated and -fixed cells were suspended in 150 μL of PBS, then 0.5 mL phosphate-citrate buffer (0.05 M, pH 4.0) was added and the suspension was incubated at room temperature for 5 min to facilitate the extraction of low-molecular-weight DNA. Following centrifugation, the cells were resuspended in 150 μL DNA staining solution (20 μg/mL propidium iodide, 200 μg/mL […], and 0.1% Triton X-100) and incubated in the CO2 incubator (37 °C for 30 min). Cell cycle distribution was determined by fluorescence-activated cell sorting analysis of propidium iodide-stained ethanol-fixed cells using a Guava EasyCyte (Guava easy Cyte, MERCK, Kenilworth Union County, NJ, USA).

[11] = Chang Liver cells (normal liver cell line)

Row | IC50 [4, 11] | SMILES | IC50 [1] | IC50 [2] | IC50 [3] | IC50 [5] | IC50 [6] | IC50 [4] | IC50 [7] | other results
1 | 72.4 ± 6.5 µM | O=c1[nH]cc(F)c(=O)[nH]1 [5-Fluorouracil, reference compound] | 65.2 ± 5.5 µM | 68.3 ± 5.7 µM | 62 ± 4.9 µM | – | – | – | – | –
2 | – | Cc1cnc(N(c2ccccc2)c2c([N+](=O)[O-])cc([N+](=O)[O-])c3no[n+]([O-])c23)s1 [Compound 3e, 7-((5-methylthiazol-2-yl)(phenyl)amino)-4,6-dinitrobenzo[c][1,2,5]oxadiazole 1-oxide] | – | – | – | 79 ± 6.3 µM | > 100 µM | 85.8 ± 7.4 µM | > 100 µM | –
3 | – | CCOC(=O)c1cnc(Nc2c([N+](=O)[O-])cc([N+](=O)[O-])c3no[n+]([O-])c23)s1 [Compound 3c, 7-(5-(ethoxycarbonyl)thiazol-2-ylamino)-4,6-dinitrobenzo[c][1,2,5]oxadiazole 1-oxide] | – | – | – | 95.8 ± 8.4 µM | > 100 µM | 100 ± 9.4 µM | > 100 µM | –
4 | > 100 µM | Cc1cnc(Nc2ccccc2)s1 [Compound 2e] | > 100 µM | > 100 µM | 92 ± 8.2 µM | – | – | – | – | –
5 | – | Cc1cnc(Nc2c([N+](=O)[O-])cc([N+](=O)[O-])c3no[n+]([O-])c23)s1 [Compound 3b, 7-(5-methylthiazol-2-ylamino)-4,6-dinitrobenzo[c][1,2,5]oxadiazole 1-oxide] | – | – | – | 70 ± 6.2 µM | > 100 µM | > 100 µM | > 100 µM | –
6 | – | Nc1nccs1 [Compound 2a] | – | – | – | 91 ± 8.3 µM | > 100 µM | > 100 µM | > 100 µM | –
7 | > 100 µM | COc1ccc(Nc2nccs2)cc1 [Compound 2f] | > 100 µM | > 100 µM | 93.8 ± 8.4 µM | – | – | – | – | –
8 | 95.4 ± 8.7 µM | CCOC(=O)c1csc(N)n1 [Compound 2c] | > 100 µM | > 100 µM | 63.3 ± 5.7 µM | – | – | – | – | –
9 | – | O=[N+]([O-])c1cc([N+](=O)[O-])c2no[n+]([O-])c2c1Nc1nccs1 [Compound 3a, 4,6-dinitro-7-(thiazol-2-ylamino)benzo[c][1,2,5]oxadiazole 1-oxide] | – | – | – | 61 ± 5.4 µM | > 100 µM | > 100 µM | > 100 µM | Cytotoxicity in words, M-HeLa [5]: moderate cytotoxicity; Toxicity in words, normal cells (Chang Liver) [8]: not toxic
10 | – | COc1ccc(N(c2nccs2)c2c([N+](=O)[O-])cc([N+](=O)[O-])c3no[n+]([O-])c23)cc1 [Compound 3f, 7-((4-methoxyphenyl)(thiazol-2-yl)amino)-4,6-dinitrobenzo[c][1,2,5]oxadiazole 1-oxide] | – | – | – | 56.6 ± 4.7 µM | > 100 µM | > 100 µM | > 100 µM | Early apoptotic cells (Ea) ([9]; 50 µM): 10.73%; Early apoptotic cells (Ea) ([9]; 100 µM): 17.29%; Cytotoxicity in words, M-HeLa [5]: moderate cytotoxicity; Cells in G1 phase ([10]; 50 µM): 81.4%; Cells in G1 phase ([10]; 100 µM): 83.8%; Toxicity in words, normal cells (Chang Liver) [8]: not toxic
11 | – | O=[N+]([O-])c1cc([N+](=O)[O-])c2no[n+]([O-])c2c1N(c1ccccc1)c1nccs1 [Compound 3d, 4,6-dinitro-7-(phenyl(thiazol-2-yl)amino)benzo[c][1,2,5]oxadiazole 1-oxide] | – | – | – | 61 ± 5.6 µM | > 100 µM | 86.1 ± 7.8 µM | > 100 µM | Cytotoxicity in words, M-HeLa [5]: moderate cytotoxicity; Toxicity in words, normal cells (Chang Liver) [8]: not toxic
12 | > 100 µM | Cc1cnc(N)s1 [Compound 2b] | > 100 µM | > 100 µM | 92 ± 7.9 µM | – | – | – | – | –

Reference: PMC8305974, “Novel Hybrid Compounds Containing Benzofuroxan and Aminothiazole Scaffolds: Synthesis and Evaluation of Their Anticancer Activity” (International Journal of Molecular Sciences, 2021)
